One series concerns NCI-H358. Put plainly: cells. The note with it: Homo sapiens.
Series [1] deals with Son of sevenless homolog 1 (Homo sapiens, UniProt Q07889, G12C). Description: Binding affinity to recombinant human His10-tagged SOS1 (564 to 1049 residues) assessed as inhibition of GST-tagged human KRAS G12C mutant (1 to 169 residues) interaction with SOS1 preincubated for 15 mins followed by KRAS addition and measured after 2 hrs by FRET assay.
Series [2] in a line: Lipophilicity, log D of the compound in octanol/phosphate buffer at pH 7.4 measured after 2 hrs by LC-MS/MS based shake flask method. The class given is physicochemical.
A short description of series [3]: Kinetic solubility of the compound in pH 7.4 phosphate buffered saline at 300 uM measured after 2 hrs by LC-MS/MS analysis. Format: physicochemical. The note with it: read-out: Kinetic_solubility.
Series [4] in a line: Apparent permeability across apical to basolateral side in MDCKII-MDR1 cells at 10 uM measured after 60 mins by LC-MS/MS analysis. The class given is ADME, cell-based, Canis lupus familiaris. As to conditions: dog, MDCK-MDR1.
The target in series [5] is Voltage-gated inwardly rectifying potassium channel KCNH2 (Homo sapiens, UniProt Q12809). Description: Inhibition of human ERG stably transfected in HEK293 cells by manual patch-clamp assay. The class given is toxicity, cell-based.
Series [6] can be described thus: Intrinsic clearance in human liver microsomes at 1 uM measured after 0.5 to 30 mins in presence of NADPH by LC-MS/MS analysis. Format: ADME, Microsome. The note with it: time 0.5-30 min, read-out: CLH. A general note: Liver microsomes are a subcellular fraction often used to study metabolism.
A short description of series [7]: Intrinsic clearance in mouse liver microsomes at 1 uM measured after 0.5 to 30 mins in presence of NADPH by LC-MS/MS analysis. As to conditions: time 0.5-30 min, read-out: CLH. Format: ADME, Microsome.
Series [8] in a line: Unbound clearance in BALB/c mouse at 5 mg/kg, po via gavage or 1 mg/kg, iv administered as bolus dose by LC-MS/MS analysis. As to conditions: in vivo. The class given is ADME, organism-based.
Series [9] is described as follows: Volume of distribution at steady state in BALB/c mouse at 1 mg/kg, iv administered as bolus dose by LC-MS/MS analysis. The class given is ADME, organism-based. As to conditions: in vivo, read-out: Vdss.
Series [10] in a line: Half life in BALB/c mouse at 1 mg/kg, iv administered as bolus dose by LC-MS/MS analysis. Format: ADME, organism-based. As to conditions: in vivo.
Series [11] is described as follows: Oral bioavailability in BALB/c mouse at 5 mg/kg administered via gavage by LC-MS/MS analysis. Format: ADME, organism-based. The note with it: in vivo.
The nature of series [12]: Dissociation constant, pKa of compound at 33 uM by UV-vis spectroscopy. Format: physicochemical.

SMILES strings stand for the structures. In brackets after ≈: the same amount, converted by molar mass. A value given as a limit tells only on which side of the number the result lay.

Voltage-gated inwardly rectifying potassium channel KCNH2, sequence (Q12809 whole entry): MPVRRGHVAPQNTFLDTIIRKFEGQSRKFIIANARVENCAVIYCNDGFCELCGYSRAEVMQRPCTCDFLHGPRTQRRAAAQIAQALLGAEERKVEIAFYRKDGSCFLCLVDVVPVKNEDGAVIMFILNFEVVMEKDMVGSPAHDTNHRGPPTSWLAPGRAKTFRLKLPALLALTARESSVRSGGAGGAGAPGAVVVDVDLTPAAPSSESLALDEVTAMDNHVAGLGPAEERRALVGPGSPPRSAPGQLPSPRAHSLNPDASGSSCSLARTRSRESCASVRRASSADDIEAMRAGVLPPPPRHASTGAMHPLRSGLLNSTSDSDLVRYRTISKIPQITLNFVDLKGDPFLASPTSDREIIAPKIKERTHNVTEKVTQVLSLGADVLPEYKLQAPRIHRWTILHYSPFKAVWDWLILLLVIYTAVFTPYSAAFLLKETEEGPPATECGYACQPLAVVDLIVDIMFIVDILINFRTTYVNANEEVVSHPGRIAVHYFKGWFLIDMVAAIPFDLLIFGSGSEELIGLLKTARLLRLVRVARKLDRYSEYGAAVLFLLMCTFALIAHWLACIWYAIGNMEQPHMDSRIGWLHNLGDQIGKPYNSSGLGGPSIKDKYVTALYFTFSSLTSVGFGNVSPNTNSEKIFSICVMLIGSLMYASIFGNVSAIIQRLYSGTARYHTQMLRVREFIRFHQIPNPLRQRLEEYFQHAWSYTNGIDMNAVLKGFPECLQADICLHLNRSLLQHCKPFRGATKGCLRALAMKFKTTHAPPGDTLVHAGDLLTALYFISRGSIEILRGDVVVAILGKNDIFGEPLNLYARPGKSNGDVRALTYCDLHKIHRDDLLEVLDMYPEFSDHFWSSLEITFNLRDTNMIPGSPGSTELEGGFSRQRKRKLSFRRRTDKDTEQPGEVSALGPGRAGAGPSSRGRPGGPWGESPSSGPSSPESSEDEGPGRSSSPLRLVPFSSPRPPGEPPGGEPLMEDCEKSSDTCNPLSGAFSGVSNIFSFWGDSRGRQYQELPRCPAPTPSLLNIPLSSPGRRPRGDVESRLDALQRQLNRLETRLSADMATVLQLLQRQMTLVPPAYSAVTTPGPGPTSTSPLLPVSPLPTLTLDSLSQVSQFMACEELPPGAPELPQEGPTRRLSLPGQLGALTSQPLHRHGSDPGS
Son of sevenless homolog 1, sequence (Q07889 whole entry, looked up, stated change not applied, the tested form may be a part): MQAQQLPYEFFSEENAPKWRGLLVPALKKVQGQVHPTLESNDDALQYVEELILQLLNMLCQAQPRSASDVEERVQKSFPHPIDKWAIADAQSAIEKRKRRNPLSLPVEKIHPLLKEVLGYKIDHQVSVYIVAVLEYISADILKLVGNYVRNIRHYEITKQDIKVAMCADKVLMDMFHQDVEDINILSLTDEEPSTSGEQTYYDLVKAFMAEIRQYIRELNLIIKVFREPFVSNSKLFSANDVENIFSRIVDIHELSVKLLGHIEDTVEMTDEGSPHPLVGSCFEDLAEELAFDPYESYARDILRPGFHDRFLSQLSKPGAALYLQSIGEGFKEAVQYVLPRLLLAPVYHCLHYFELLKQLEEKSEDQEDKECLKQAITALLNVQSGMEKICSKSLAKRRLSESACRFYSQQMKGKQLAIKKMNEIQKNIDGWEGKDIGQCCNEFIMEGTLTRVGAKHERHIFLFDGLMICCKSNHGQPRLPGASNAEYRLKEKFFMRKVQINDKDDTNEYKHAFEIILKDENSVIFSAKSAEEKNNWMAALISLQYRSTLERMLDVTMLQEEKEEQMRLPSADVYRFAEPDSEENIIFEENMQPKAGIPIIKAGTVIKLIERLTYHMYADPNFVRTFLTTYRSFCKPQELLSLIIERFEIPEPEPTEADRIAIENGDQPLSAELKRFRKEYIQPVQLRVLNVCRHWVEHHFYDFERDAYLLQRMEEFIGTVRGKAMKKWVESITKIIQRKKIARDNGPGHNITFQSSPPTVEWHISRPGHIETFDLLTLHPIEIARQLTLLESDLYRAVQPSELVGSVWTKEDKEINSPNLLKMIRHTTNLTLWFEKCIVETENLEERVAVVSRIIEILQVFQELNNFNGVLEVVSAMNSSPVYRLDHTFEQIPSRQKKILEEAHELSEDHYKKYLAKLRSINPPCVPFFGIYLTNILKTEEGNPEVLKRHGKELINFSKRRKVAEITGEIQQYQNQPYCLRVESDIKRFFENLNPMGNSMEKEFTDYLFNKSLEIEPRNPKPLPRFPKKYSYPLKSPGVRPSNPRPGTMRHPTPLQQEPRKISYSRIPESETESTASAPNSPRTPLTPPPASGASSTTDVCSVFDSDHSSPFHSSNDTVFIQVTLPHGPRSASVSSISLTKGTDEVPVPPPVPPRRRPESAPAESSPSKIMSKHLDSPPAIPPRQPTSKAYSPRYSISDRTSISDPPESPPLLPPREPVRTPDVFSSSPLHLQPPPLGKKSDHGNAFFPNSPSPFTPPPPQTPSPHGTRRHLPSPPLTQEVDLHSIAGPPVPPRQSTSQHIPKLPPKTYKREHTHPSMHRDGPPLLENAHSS
Description for NCI-H358: Antiproliferative activity against human NCI-H358 cells assessed as reduction in cell viability incubated for 10 days with media refreshed for every 5 days by celltiter-glo assay

Broadly, the IC50 is the concentration that inhibits the measured activity by half. As for `COc1cc2nc(C)nc(N[C@H](C)c3cc(N)cc(C(F)(F)F)c3)c2cc1O[C@H]1CCOC1`, the IC50 in the series with NCI-H358 is 0.032 µM.
As to `Oc1cc(-c2ncc3c(N4C[C@H]5CC[C@@H](C4)N5)nc(OCC45CCCN4CCC5)nc3c2F)c2ccccc2c1`, in series [1], the IC50 was under 0.002 µM.
The term logD denotes lipophilicity at a set pH, counting ionised and neutral species. High values mean higher lipophilicity, low ones lower lipophilicity. Broadly, the Papp A→B is how fast a substance crosses the layer from the apical side. For orientation: half-life means how long it takes for the measured level to halve. High values mean slow loss, low ones fast loss. As usually defined, the bioavailability is the share of a dose that reaches the circulation, judged against a reference dose that is usually intravenous. In series [2], `C[C@@H](Nc1nc2c(c3cc(=O)n(C4CC4)cc13)CC(N1CCC1)CC2)c1cccc(C(F)F)c1F` (some centres undefined) displayed a logD at 2 h of 2.6. The solubility kinetic at 2 h, 300 µM in [3] turned out to be 226 µM (≈ 109 µg/mL). Moreover, in series [4], the Papp A→B at 1 h, 10 µM is 3 nm/s. Moreover, the IC50 is 1.1 µM in series [5] and 0.019 µM in the series with NCI-H358. The CLint scaled at 1 µM in [6] worked out at 0.54 L/h/kg; in series [7], 2.94 L/h/kg. The CL free in [8] came out at 21.2 L/h/kg. In series [9], the Vd amounted to 4.1 L/kg. In [10], this molecule had a half-life of 1.1 h. Besides, the bioavailability in series [11] is 2%.
Broadly, the pKa is the pH at which an ionisable group is half protonated. Lower therefore signals a stronger acid or weaker base. Molecule `C[C@@H](Nc1nc2c(c3cc(=O)n(C4CCOCC4)cc13)CC(N1CCC1)CC2)c1cccc(C(F)F)c1F` (some centres undefined) yielded a pKa at 33 µM in [12] of 9.3.
In series [12], `COC1CN(C2CCc3nc(N[C@H](C)c4cccc(C(F)F)c4F)c4cn(C5CCOCC5)c(=O)cc4c3C2)C1` (some centres undefined) showed a pKa at 33 µM of 7.8.
Turning to `Cc1c([C@@H](C)Nc2nc3c(c(=O)n2C)CNCC3)cccc1C(F)(F)F`, the Papp A→B at 1 h, 10 µM in series [4] is 32 nm/s.
Molecule `C[C@@H](Nc1nc2c(c3cc(=O)n(C4CCOCC4)cc13)CC(N1CC(F)(F)C1)CC2)c1cccc(C(F)F)c1F` (some centres undefined) displayed a pKa at 33 µM in [12] of 6.1.
Consider `Cc1c([C@@H](C)Nc2nc3c(c4cc(=O)n(C5CCOCC5)cc24)CNCC3)cccc1C(F)(F)F`, for which, in series [12], the pKa at 33 µM came out at 8.8. The same molecule gave a logD at 2 h in [2] of 2.9. Further, in series [4], the apical-to-basolateral permeability (Papp A→B) at 1 h, 10 µM was 2 nm/s. The CLint scaled at 1 µM in series [6] was 0.66 L/h/kg; in series [7] it was 2.76 L/h/kg.
In the case of `C[C@@H](Nc1nc2c(c3cc(=O)n(C4CC4)cc13)CC(N1CC[C@@H](F)C1)CC2)c1cccc(C(F)F)c1F` (some centres undefined), in [2], the logD at 2 h was determined as 3.7. Further, the solubility kinetic at 2 h, 300 µM in series [3] came out at 90 µM (≈ 46.3 µg/mL). Besides, the Papp A→B at 1 h, 10 µM in [4] was determined as 2 nm/s. Moreover, the IC50 in series [5] is 1.1 µM; in the series with NCI-H358 it was 0.032 µM. Moreover, the CLint scaled at 1 µM worked out at 3.36 L/h/kg in [6] and 8.58 L/h/kg in series [7]. Besides, the CL free in series [8] is 49 L/h/kg. Further, the Vd in series [9] was found to be 4.6 L/kg. Moreover, the half-life in series [10] was 4 h. The bioavailability in series [11] worked out at 2%.
For `Cc1c(C#N)cccc1[C@@H](C)Nc1nnc(C)c2cnc(N3CCOCC3)cc12` [MRTX-0902], in the series on NCI-H358, 0.022 µM corresponded to half-maximal inhibition (IC50).

For the origin of these results see ChEMBL document CHEMBL6177949, “Exploiting Solvent Exposed Salt-Bridge Interactions for the Discovery of Potent Inhibitors of SOS1 Using Free-Energy Perturbation Simulations” (ACS Med Chem Lett, 2025).
